# Entries after “also recorded” stand apart in the source; their conditions may differ. Where two headings read alike, the source gives them in different places.
# How the values were obtained:
# [1] = tested on: P.aeruginosa; conditions: cited from earlier work
# Description: The presence of extracellular M.tb within biofilm like structure inside lung lesions of M.tb infected guinea pigs undergoing antibiotic treatment points to the possibility of biofilm formation within the host tissues.[7] Peptidyl-prolyl isomerases (PPIase), popularly known as cyclophilins, are ubiquitously expressed protein foldases which aid in protein folding or refolding by ...
# [2] = cited from earlier work
# Description: Our next step was to identify suitable drug(s) that could act as an inhibitor of PpiB protein. Developing new drugs is a long process taking about 10–15 years. Drug repurposing is gaining popularity as it allows bypassing of the cumbersome clinical trial of drugs for which the parameters of toxicity and effectiveness have already been tested and approved.
# [3] = tested on: M. smegmatis (Ms_VC and Ms_PpiB); conditions: general statement, no reference given; cited from earlier work
# [4] = tested on: M. smegmatis (Ms_VC and Ms_PpiB); assay type: cell-based, Mycobacterium smegmatis
# [5] = tested on: Prokaryotic cyclophilins; conditions: cited from earlier work
# [6] = tested on: M. smegmatis (Ms_VC and Ms_PpiB); assay type: cell-based, Mycobacterium smegmatis; conditions: for bacteriostatic effect at 100 µg/ml: up to 120 h; for Concentration up to which effect is bacteriostatic: 120 h as compared to 72 h; for bacteriostatic or bactericidal effect: M. smegmatis, summary statement
# [7] = tested on: M. smegmatis (Ms_VC and Ms_PpiB); assay type: cell-based, Mycobacterium smegmatis; remark: listed apart in the source
# [8] = tested on: Candida albicans; conditions: cited from earlier work
# [9] = tested on: M.smegmatis expressing M.tb PpiB (Ms_PpiB) and vector control (Ms_VC); assay type: cell-based, Mycobacterium smegmatis
# [10] = tested on: M.tuberculosis H37Rv; assay type: cell-based, Mycobacterium tuberculosis
# [11] = tested on: M.tb PpiB; assay: Surface plasmon resonance (SPR); assay type: binding, Mycobacterium tuberculosis; conditions: rPpiB immobilised on CM5 sensor chip, PBS, association 300 s, dissociation 150 s
# [12] = tested on: M. smegmatis (Ms_VC and Ms_PpiB); assay type: cell-based, Mycobacterium smegmatis; remark: listed apart in the source
# [13] = tested on: C.parapsilosis; conditions: cited from earlier work
# [14] = tested on: E. coli; conditions: cited from earlier work
# Description: Acarbose is widely used for the management of type 2 Diabetes mellitus as well. […] There are several bacteria that are invol ...
# [15] = tested on: M. smegmatis (Ms_VC and Ms_PpiB); conditions: general statement, no reference given; cited from earlier work; remark: listed apart in the source
molecule,measurement,setting,value
O=C(Nc1ccc([N+](=O)[O-])cc1Cl)c1cc(Cl)ccc1O [niclosamide],effect against P.aeruginosa biofilm,[1],inhibitory effects against biofilms formed by P.aeruginosa
CCN(CC)CCCC(C)Nc1ccnc2cc(Cl)ccc12 (stereo not drawn) [chloroquine],repurposing outcome in patients,[2],improving outcome of cancer drug Erlotinib
Cc1ccc(-c2cc(C(F)(F)F)nn2-c2ccc(S(N)(=O)=O)cc2)cc1 [Celebrex],repurposing outcome in patients,[2],decreasing polyp formation in colon cancer patients
CN(C)C(=N)N=C(N)N [metformin],repurposing outcome in patients,[2],lowering morbidity of TB patients
"CC[C@@H](CO)NCCN[C@@H](CC)CO [Ethambutol, ethambutol]","dosage of ethambutol, normally effective",[3],1 µg/mL
same,dosage of ethambutol with cyclosporine-A,[4],4 µg/mL
same,"dosage of ethambutol, control without GaNP","[4]; Fig. 4e, control",16 µg/mL
same,"dosage of ethambutol, absence of cyclosporine-A","[4]; Fig. 4d, PpiB tet+, 68 h",16 µg/mL
same,dosage of ethambutol with GaNP,"[4]; GaNP 50 µg/ml, Fig. 4e",1 µg/mL
cyclosporine-A,affinity for prokaryotic cyclophilins,[5],weak affinity
same,bacteriostatic effect at 100 µg/ml,[6],bacteriostatic effect
same,Concentration up to which effect is bacteriostatic,[6],≤ 500 µg/mL
same,bacteriostatic or bactericidal effect,[6]; listed as cyclosporine A,bacteriostatic activity
same,bacteriostatic or bactericidal effect,[6]; listed as cyclosporine-A,bacteriostatic effect
same,decrease in ethambutol dosage with cyclosporine-A,[4],decreased four-fold
same,Threshold concentration at which viability was not significantly affected,[7],100 µg/mL
same,"viability, cyclosporine-A below 250 µg/ml",[7],insignificant effect
same,combination with fluconazole against C.albicans biofilms,[8],effective against biofilms formed by C.albicans
same,sensitisation of C. albicans biofilm to antifungal drugs,[8],sensitises drug-tolerant biofilm of Candida albicans to various antifungal drugs
same,sensitivity of C.albicans to fluconazole,[8],imparts sensitivity to C.albicans towards fluconazole
same,"biofilm formation, 100 µg/ml",[9],significant decrease (p < 0.05) in biofilm formation
same,"biofilm formation, 1000 µg/ml",[9],complete inhibition of biofilm formation (p < 0.005)
same,"biofilm formation, Ms_VC cells",[9],only basal levels of biofilm formation
same,"biofilm formation, induced PpiB tet+",[9],significant decrease in biofilm formation
same,"biofilm formation, uninduced PpiB tet-",[9],did not exhibit any significant change
same,"biofilm formation in H37Rv, cyclosporine-A",[10],significant reduction (Fig. 5a) in biofilm formation
same,effect on H37Rv biofilm formation,[10],disrupted M.tb H37Rv biofilm formation; also recorded: Suppressive effect
same,SPR interaction,[11],interact with M.tb PpiB in a dose dependent manner and bind with high affinity
same,reduction in dosage of anti-TB drugs,[12],at least two-fold
same,synergy with antifungals against C.parapsilosis,[13],acts synergistically to improve the efficacy of antifungals against C.parapsilosis
"C[C@H]1O[C@H](O[C@H]2[C@H](O)[C@@H](O)[C@@H](O[C@H]3[C@H](O)[C@@H](O)C(O)O[C@@H]3CO)O[C@@H]2CO)[C@H](O)[C@@H](O)[C@@H]1N[C@H]1C=C(CO)[C@@H](O)[C@H](O)[C@H]1O (stereo partly drawn) [Acarbose, acarbose]",bacteriostatic effect at 100 µg/ml,[6],bacteriostatic effect
same,Concentration up to which effect is bacteriostatic,[6],≤ 1000 µg/mL
same,bacteriostatic or bactericidal effect,[6],bacteriostatic effect; also recorded: bacteriostatic activity
same,efficacy in decreasing the dosage of ethambutol,"[4]; acarbose, data not shown",insignificant
same,"viability, acarbose 10 mg/ml","[7]; 10 mg/ml, data not shown",no significant effect
same,Threshold concentration at which viability was not significantly affected,"[7]; M. smegmatis expressing PpiB, alamar blue",1000 µg/mL
same,"viability, acarbose up to 1000 µg/ml","[7]; up to 1000 µg/ml, Ms_VC or Ms_PpiB",no effect
same,maltose importer block and growth of E. coli,[14],block maltose importer and consequently suppress growth of E. coli
same,"biofilm formation, induced PpiB tet+",[9],significant decrease in biofilm formation
same,"biofilm formation, acarbose 500 µg/ml and above",[9]; 500 µg/ml and above,inhibited biofilm formation
same,"biofilm formation, uninduced PpiB tet-",[9]; Ms_PpiB uninduced by anhydrotetracycline (PpiB tet-),did not exhibit any significant change
same,"biofilm formation, Ms_VC cells","[9]; Ms_VC, presence or absence of agent",only basal levels of biofilm formation
same,"biofilm formation, 500 and 1000 µg/ml","[9]; acarbose 500 and 1000 µg/ml, Ms_PpiB, compared to no acarbose, 7 days",significant inhibition in the biofilm formation
same,"biofilm formation, lower concentrations","[9]; acarbose at lower concentrations, VC tet- and PpiB tet-, ""Hormetic effect""",transient increase in biofilm formation
same,"biofilm formation, acarbose upto 100 µg/ml",[9]; lower concentration (upto 100 µg/ml),increase in biofilm formation
same,SPR interaction,[11],interact with M.tb PpiB in a dose dependent manner and bind with high affinity
same,reduction in dosage of anti-TB drugs,"[12]; co-treatment, isoniazid/ethambutol",at least two-fold
"NNC(=O)c1ccncc1 [Isoniazid, isoniazid]","dosage of isoniazid, normally effective",[15],16 µg/mL
same,dosage of isoniazid with cyclosporine-A,[12],32 µg/mL
same,fold decrease in dosage of isoniazid,[12],2–4 fold
same,"dosage of isoniazid, absence of cyclosporine-A","[12]; Fig. 4a, PpiB tet+ biofilm, 7 days then 68 h isoniazid",64 µg/mL
same,"dosage of isoniazid, absence of acarbose","[12]; Fig. 4b, PpiB (tet+), 68 h",64 µg/mL
same,dosage of isoniazid with GaNP,"[12]; GaNP 50 µg/ml, Fig. 4c, 68 h",16 µg/mL
same,dosage of isoniazid with acarbose,"[12]; acarbose 500 µg/ml, Fig. 4b, PpiB (tet+), 68 h",32 µg/mL
